How the values were obtained:
[1] = molecular target: T1, Trypsin (type 1× from porcine pancreas) (Sus scrofa, UniProt P00761); assay: Trypsin Assay; format: biochemical; parameters: % Inhibition Trypsin II @ 1: concentration or dose not given beside the values; conditions: for % Inhibition Trypsin II (30 µM): at 30 µM; for % Inhibition Trpysin II (100 νM): inhibitor at 100 νM
T1 construct: Trypsin (5 ug/ml; type 1× from porcine pancreas); purchased Sigma, St. Louis Mo; host or cells: porcine pancreas
T1 sequence (P00761 9-231): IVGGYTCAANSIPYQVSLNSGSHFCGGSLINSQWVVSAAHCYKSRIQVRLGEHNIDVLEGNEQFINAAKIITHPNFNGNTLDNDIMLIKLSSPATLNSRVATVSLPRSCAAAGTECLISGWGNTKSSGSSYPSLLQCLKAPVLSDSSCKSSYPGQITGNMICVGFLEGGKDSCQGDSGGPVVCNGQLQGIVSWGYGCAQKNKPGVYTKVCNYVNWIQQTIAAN

[2] = molecular target: T2, recombinant soluble tissue factor and recombinant human factor VIIa (TF-VIIa) (Homo sapiens, UniProt P08709); assay: TF-VIIa Assay; format: biochemical; conditions: for % Inhibition TF-VIIa (100 νM): inhibitor at 100 νM
T2 construct: conversion of coagulation factor VII to VIIa by Xa; purchased American Diagnostica, Greenwich Conn; host or cells: factor VIIa purchased; soluble TF made in house in E. coli
T2 sequence (P08709 213-466 limits assumed): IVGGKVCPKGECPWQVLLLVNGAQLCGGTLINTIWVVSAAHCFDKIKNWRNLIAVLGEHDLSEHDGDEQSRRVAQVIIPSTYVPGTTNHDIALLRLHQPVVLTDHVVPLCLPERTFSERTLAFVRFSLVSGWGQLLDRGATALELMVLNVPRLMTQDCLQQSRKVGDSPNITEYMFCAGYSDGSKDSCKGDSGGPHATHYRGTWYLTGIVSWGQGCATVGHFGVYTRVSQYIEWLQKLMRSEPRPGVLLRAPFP
T2 sequence (P08709 61-212 limits assumed): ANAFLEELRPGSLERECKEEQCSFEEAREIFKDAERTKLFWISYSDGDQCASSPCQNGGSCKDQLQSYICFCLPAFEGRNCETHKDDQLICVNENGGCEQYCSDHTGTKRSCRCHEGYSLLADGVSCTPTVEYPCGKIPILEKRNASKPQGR
T2 sequence (P13726 33-251 partner limits assumed): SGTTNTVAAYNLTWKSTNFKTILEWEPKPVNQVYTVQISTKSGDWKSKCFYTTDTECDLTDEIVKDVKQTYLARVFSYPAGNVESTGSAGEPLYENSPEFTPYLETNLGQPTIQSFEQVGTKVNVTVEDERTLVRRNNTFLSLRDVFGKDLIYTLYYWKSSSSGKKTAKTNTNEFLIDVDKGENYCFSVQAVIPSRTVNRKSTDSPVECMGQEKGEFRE

SMILES | % Inhibition Trypsin II @ 1 [1] [% @ 1] | % Inhibition TF-VIIa (100 νM) [2] [%] | % Inhibition Trpysin II (100 νM) [1] [%] | other results
Cc1c(Cl)nc(NCCc2ccc(Cl)cc2)c(=O)n1CC(=O)NCc1ccc(C(=N)N)cc1 [1471-2] |  |  |  | % Inhibition Trypsin II (30 µM) [1]: 0%
N=C(N)c1ccc(CNC(=O)Cn2c(-c3ccc4c(c3)OCO4)c(Cl)nc(NCCc3ccc(Cl)cc3)c2=O)cc1 [1471-42] |  |  |  | IC50 ([2]; read-out: IC50 TF-VIIa): 10.5 µM
N=C(N)c1ccc(CNC(=O)Cn2c(-c3ccccc3)c(Cl)nc(NCc3ccc(OC(F)(F)F)cc3)c2=O)cc1 [1507-04] | 9 |  |  | 
N=C(N)c1ccc(CNC(=O)Cn2c(-c3ccccc3)c(Cl)nc(NCCc3ccc(Br)cc3)c2=O)cc1 [1507-06] | 8 |  |  | 
N=C(N)c1ccc(CNC(=O)Cn2c(-c3ccccc3)c(Cl)nc(NC(Cc3ccccc3)c3ccccc3)c2=O)cc1 (stereo not shown) [1507-07] | 7 |  |  | 
COc1ccc(CCNc2nc(Cl)c(-c3ccccc3)n(CC(=O)NCc3ccc(C(=N)N)cc3)c2=O)cc1 [1507-11] | 27 |  |  | 
COc1cccc(CCNc2nc(Cl)c(-c3ccccc3)n(CC(=O)NCc3ccc(C(=N)N)cc3)c2=O)c1 [1507-12] | 12 |  |  | 
COc1ccc(CNc2nc(Cl)c(-c3ccccc3)n(CC(=O)NCc3ccc(C(=N)N)cc3)c2=O)cc1 [1507-13] | 8 |  |  | 
N=C(N)c1ccc(CNC(=O)Cn2c(-c3ccccc3)c(Cl)nc(NCc3ccccc3C(F)(F)F)c2=O)cc1 [1507-15] | 11 |  |  | 
N=C(N)c1ccc(CNC(=O)Cn2c(-c3ccccc3)c(Cl)nc(NCCc3cccs3)c2=O)cc1 [1507-18] | 6 |  |  | 
N=C(N)c1ccc(CNC(=O)Cn2c(-c3ccccc3)c(Cl)nc(NCc3ccc(Cl)cc3Cl)c2=O)cc1 [1507-22] | 8 |  |  | 
N=C(N)c1ccc(CNC(=O)Cn2c(-c3ccccc3)c(Cl)nc(NCc3ccccn3)c2=O)cc1 [1507-24] |  |  |  | % Inhibition Trypsin II (30 µM) [1]: 25% @ 30
N=C(N)c1ccc(CNC(=O)Cn2c(-c3ccccc3)c(Cl)nc(NC3CCCC3)c2=O)cc1 [1507-25] | 60 |  |  | 
N=C(N)c1ccc(CNC(=O)Cn2c(-c3ccccc3)c(Cl)nc(NCc3ccc(F)cc3F)c2=O)cc1 [1507-26] | 11 |  |  | 
N=C(N)c1ccc(CNC(=O)Cn2c(-c3ccccc3)c(Cl)nc(NCc3cccc4ccccc34)c2=O)cc1 [1507-28] | 1 |  |  | 
N=C(N)c1ccc(CNC(=O)Cn2c(-c3ccccc3)c(Cl)nc(NCc3ccc(Br)cc3)c2=O)cc1 [1507-30] | 0 |  |  | 
N=C(N)c1ccc(CNC(=O)Cn2c(-c3ccccc3)c(Cl)nc(NC3CC3)c2=O)cc1 [1507-31] | 2 |  |  | 
CC(C)CNc1nc(Cl)c(-c2ccccc2)n(CC(=O)NCc2ccc(C(=N)N)cc2)c1=O [1507-32] | 0 |  |  | 
C[C@H](Nc1nc(Cl)c(-c2ccccc2)n(CC(=O)NCc2ccc(C(=N)N)cc2)c1=O)c1ccccc1 [1507-34] | 0 |  |  | 
N=C(N)c1ccc(CNC(=O)Cn2c(-c3ccccc3)c(Cl)nc(NCc3cccc(Cl)c3)c2=O)cc1 [1507-38] | 0 |  |  | 
N=C(N)c1ccc(CNC(=O)Cn2c(-c3ccccc3)c(Cl)nc(NCc3cccc(F)c3)c2=O)cc1 [1507-42] | 0 |  |  | 
Cc1ccc(CCNc2nc(Cl)c(-c3ccccc3)n(CC(=O)NCc3ccc(C(=N)N)cc3)c2=O)cc1 [1507-45] | 0 |  |  | 
N=C(N)NCC#CCNC(=O)Cn1c(-c2ccccc2)cnc(NCCc2ccccc2)c1=O [Example 36] |  |  |  | % Inhibition Trypsin II (30 µM) [1]: 30%
CC(C)Nc1nc(Cl)c(-c2cccc([N+](=O)[O-])c2)n(CC(=O)NCc2ccc(C(N)=NO)cc2)c1=O [Example 61] |  |  |  | % Inhibition Trypsin II (30 µM) [1]: 10%
N=C(N)c1ccc(CNC(=O)Cn2c(-c3cccc(N)c3)c(Cl)nc(NCCc3ccccc3)c2=O)cc1 [Example 86] | 78 |  |  | 
Nc1cccc(-c2c(Cl)nc(NC3CCC3)c(=O)n2CC(=O)NCCc2ccccc2)c1 [Example 89] |  |  |  | % Inhibition Trypsin II (30 µM) [1]: 9% @ 30
Nc1cccc(-c2c(Cl)nc(NC3CCC3)c(=O)n2CC(=O)NCc2ccccc2)c1 [Example 99] |  |  |  | % Inhibition Trypsin II (30 µM) [1]: 7% @ 30
N=C(N)c1ccc(CNC(=O)Cn2c(-c3ccccc3)c(Cl)nc(NCC3CC3)c2=O)cc1 [Example 1517-43] |  |  |  | % Inhibition Trypsin II (30 µM) ([1]; cells with % sign): 43%

Now from value to compound, other results behind:

% Inhibition Trypsin II @ 1 [1] [% @ 1] | % Inhibition TF-VIIa (100 νM) [2] [%] | % Inhibition Trpysin II (100 νM) [1] [%] | SMILES | other results
 | 0 | 0 | Cc1c(Cl)nc(NCc2ccccc2)c(=O)n1CC(=O)NCCc1ccncc1 [Example E-0001] | 
 | 0 | 0 | Cc1c(Cl)nc(NCCc2ccccc2)c(=O)n1CC(=O)NCCc1ccncc1 [Example E-0002] | 
 | 0 | 0 | Cc1c(Cl)nc(NCCc2cccc(Cl)c2)c(=O)n1CC(=O)NCCc1ccncc1 [Example E-0003] | 
 | 0 | 0 | Cc1c(Cl)nc(NCCc2ccc(Cl)cc2)c(=O)n1CC(=O)NCCc1ccncc1 [Example E-0004] | 
 | 0 | 0 | Cc1c(Cl)nc(NCCc2cccnc2)c(=O)n1CC(=O)NCCc1ccncc1 [Example E-0005] | 
 | 2 | 1 | Cc1c(Cl)nc(NCCc2ccncc2)c(=O)n1CC(=O)NCCc1ccncc1 [Example E-0006] | 
 | 0 | 0 | Cc1c(Cl)nc(NCCN2CCOCC2)c(=O)n1CC(=O)NCCc1ccncc1 [Example E-0007] | 
 | 0 | 0 | Cc1c(Cl)nc(NCc2ccncc2)c(=O)n1CC(=O)NCCc1ccncc1 [Example E-0008] | 
 | 0 | 1 | O=C(Cn1c(-c2ccccc2)c(Cl)nc(NCc2ccccc2)c1=O)NCCc1ccncc1 [Example E-0009] | 
 | 0 | 0 | O=C(Cn1c(-c2ccccc2)c(Cl)nc(NCCc2ccccc2)c1=O)NCCc1ccncc1 [Example E-0010] | 
 | 0 | 0 | O=C(Cn1c(-c2ccccc2)c(Cl)nc(NCCc2cccc(Cl)c2)c1=O)NCCc1ccncc1 [Example E-0011] | 
 | 0 | 0 | O=C(Cn1c(-c2ccccc2)c(Cl)nc(NCCc2ccc(Cl)cc2)c1=O)NCCc1ccncc1 [Example E-0012] | 
 | 0 | 1 | O=C(Cn1c(-c2ccccc2)c(Cl)nc(NCCc2cccnc2)c1=O)NCCc1ccncc1 [Example E-0013] | 
 | 0 | 0 | O=C(Cn1c(-c2ccccc2)c(Cl)nc(NCCc2ccncc2)c1=O)NCCc1ccncc1 [Example E-0014] | 
 | 0 |  | O=C(Cn1c(-c2ccccc2)c(Cl)nc(NCCN2CCOCC2)c1=O)NCCc1ccncc1 [Example E-0015] | 
 | 0 | 4 | O=C(Cn1c(-c2ccccc2)c(Cl)nc(NCc2ccncc2)c1=O)NCCc1ccncc1 [Example E-0016] | 

% Inhibition Trypsin II @ 1 [1] [% @ 1] | % Inhibition TF-VIIa (100 νM) [2] [%] | % Inhibition Trpysin II (100 νM) [1] [%] | SMILES | other results
 | 0 | 1 | O=C(Cn1c(-c2ccc(Cl)cc2)c(Cl)nc(NCc2ccccc2)c1=O)NCCc1ccncc1 [Example E-0017] | 
 | 1 | 4 | O=C(Cn1c(-c2ccc(Cl)cc2)c(Cl)nc(NCCc2ccccc2)c1=O)NCCc1ccncc1 [Example E-0018] | 
 | 0 | 2 | O=C(Cn1c(-c2ccc(Cl)cc2)c(Cl)nc(NCCc2cccc(Cl)c2)c1=O)NCCc1ccncc1 [Example E-0019] | 
 | 0 | 4 | O=C(Cn1c(-c2ccc(Cl)cc2)c(Cl)nc(NCCc2ccc(Cl)cc2)c1=O)NCCc1ccncc1 [Example E-0020] | 
 | 0 | 5 | O=C(Cn1c(-c2ccc(Cl)cc2)c(Cl)nc(NCCc2cccnc2)c1=O)NCCc1ccncc1 [Example E-0021] | 
 | 0 | 2 | O=C(Cn1c(-c2ccc(Cl)cc2)c(Cl)nc(NCCc2ccncc2)c1=O)NCCc1ccncc1 [Example E-0022] | 
 | 0 | 1 | O=C(Cn1c(-c2ccc(Cl)cc2)c(Cl)nc(NCCN2CCOCC2)c1=O)NCCc1ccncc1 [Example E-0023] | 
 | 0 | 1 | O=C(Cn1c(-c2ccc(Cl)cc2)c(Cl)nc(NCc2ccncc2)c1=O)NCCc1ccncc1 [Example E-0024] | 
 | 0 | 3 | O=C(Cn1c(-c2ccc(Cl)cc2)c(Cl)nc(NCc2ccccc2)c1=O)NCCc1ccncc1 [Example E-0025] | 
 | 0 | 3 | O=C(Cn1c(-c2ccc(Cl)cc2)c(Cl)nc(NCCc2ccccc2)c1=O)NCCc1ccncc1 [Example E-0026] | 
 | 0 | 3 | O=C(Cn1c(-c2ccc(Cl)cc2)c(Cl)nc(NCCc2ccc(Cl)cc2)c1=O)NCCc1ccncc1 [Example E-0028] | 
 | 0 | 2 | O=C(Cn1c(-c2ccc(Cl)cc2)c(Cl)nc(NCCc2cccnc2)c1=O)NCCc1ccncc1 [Example E-0029] | 
 | 0 | 4 | O=C(Cn1c(-c2ccc(Cl)cc2)c(Cl)nc(NCCc2ccncc2)c1=O)NCCc1ccncc1 [Example E-0030] | 
 | 0 | 3 | O=C(Cn1c(-c2ccc(Cl)cc2)c(Cl)nc(NCc2ccncc2)c1=O)NCCc1ccncc1 [Example E-0032] | 
 |  | 12 | COc1ccc(-c2c(Cl)nc(NCCc3ccccc3)c(=O)n2CC(=O)NCCc2ccncc2)cc1 [Example E-0100] | 

From patent US7119094B1, “Substituted polycyclic aryl and heteroarpyl pyrazinones useful for selective inhibition of the coagulation cascade” (Warner-Lambert Company, priority 2000, dated 2006)
